The results in this text go back to patent publication US20250002477A1, “BENZIMIDAZOLE COMPOUND OR SALT THEREOF, CANINE FILARIASIS CONTROL AGENT CONTAINING SAME, AND METHOD OF USE THEREOF” (NIHON NOHYAKU CO., LTD., priority 2021, published 2025).

The subject of the assay is L-1 stage larvae of canine filariae (Dirofilaria immitis). The assay can be described thus: Impact evaluation test on larvae motility of canine filariae. As to conditions: final concentration of 50 ppm, 3 days, corrected for DMSO solution alone.

As for `Clc1ccc(CCc2cn(-c3nc4ccccc4[nH]3)cn2)c(Cl)c1` [Compound 1-1, 2-(4-(2-(2,4-dichlorophenyl)ethyl)-1H-imidazol-1-yl)benzimidazole], the “activity level (corrected motility impediment rate)” value is “A (the corrected motility impediment rate is 100%)”.
